A word on the IC50: it is the concentration needed to halve the response being measured.

The values below come from patent publication US10435396B2, “2-substituted indazoles, methods for producing same, pharmaceutical preparations that contain same, and use of same to produce drugs” (Bayer Pharma Aktiengesellschaft, priority 2016, dated 2019).

Test [1] has as its target human IRAK4 (Homo sapiens (Human), UniProt Q9NWZ3). Put plainly: IRAK4 kinase assay (IRAK4 TR-FRET assay). The class given is biochemical. The conditions noted are these: 1 mM ATP. How it is done: The IRAK4-inhibitory activity of the substances according to the invention was measured in the IRAK4 TR-FRET assay (TR-FRET=Time Resolved Fluorescence Resonance Energy Transfer) described hereinafter.
Recombinant fusion protein from N-terminal GST (glutathione S-transferase) and human IRAK4, expressed in baculovirus-infected insect cells (Hi5, BTI-TN-5B1-4, cell line purchased from Invitrogen, catalogue No. B855-02) and purified via affinity chromatography, was used as enzyme. The substrate used for the kinase reaction was the biotinylated peptide biotin-Ahx-[…] (C-terminus in amide form) which can be purchased, for example, from Biosyntan GmbH (Berlin-Buch).
For the assay, 11 different concentrations in the range from 20 μM to 0.073 nM were prepared from a 2 mM solution of the test substance in DMSO. 50 nl of the respective solution were pipetted into a black low-volume 384-well microtitre plate (Greiner Bio-One, Frickenhausen, Germany), 2 μl of a solution of IRAK4 in assay buffer [50 mM HEPES pH 7.5, 5 mM MgCl2, 1.0 mM dithiothreitol, 30 μM activated sodium orthovanadate, 0.1% (w/v) of bovine gamma-globulin (BGG) 0.04% (v/v) nonidet-P40 (Sigma)] were added and the mixture was incubated for 15 min to allow prebinding of the substances to the enzyme prior to the kinase reaction. The kinase reaction was then started by addition of 3 μl of a solution of adenosine triphosphate (ATP, 1.67 mM=final concentration in 5 μl of assay volume: 1 mM) and peptide substrate (0.83 μM=final concentration in 5 μl assay volume: 0.5 μM) in assay buffer, and the resulting mixture was incubated at 22° C. for the reaction time of 45 min. The concentration of the IRAK4 was adjusted to the respective activity of the enzyme and set such that the assay was carried out in the linear range. Typical concentrations were in the order of about 0.2 nM. The reaction was stopped by addition of 5 μl of a solution of TR-FRET detection reagents [0.1 μM streptavidin-XL665 (Cisbio Bioassays; France, catalogue No. 610SAXLG)] and 1.5 nM anti-phosphoserine antibody [Merck Millipore, “STK Antibody”, catalogue No. 35-002] and 0.6 nM LANCE EU-W1024-labelled anti-mouse-IgG antibody (Perkin-Elmer, product No. AD0077; alternatively, it is possible to use a terbium cryptate-labelled anti-mouse-IgG antibody from Cisbio Bioassays) in aqueous EDTA solution (100 mM EDTA, 0.4% [w/v] bovine serum albumin [BSA] in 25 mM HEPES pH 7.5).
The resulting mixture was incubated at 22° C. for 1 h to allow formation of a complex of the biotinylated phosphorylated substrate and the detection reagents. The amount of the phosphorylated substrate was then evaluated by measuring the resonance energy transfer from europium chelate-labelled anti-mouse-IgG antibody to streptavidin-XL665. To this end, the fluorescence emissions at 620 nm and 665 nm were measured after excitation at 350 nm in a TR-FRET measuring instrument, for example a Rubystar (BMG Labtechnologies, Offenburg, Germany) or a Viewlux (Perkin-Elmer). The ratio of the emissions at 665 nm and 622 nm was taken as a measure of the amount of phosphorylated substrate. The data were normalized (enzyme reaction without test substance=0% inhibition; all other assay components but no enzyme=100% inhibition). Typically, the test substances were tested on the same microtitre plates at 11 different concentrations in the range from 20 μM to 0.073 nM (20 μM, 5.7 μM, 1.6 μM, 0.47 μM, 0.13 μM, 38 nM, 11 nM, 3.1 nM, 0.89 nM, 0.25 nM and 0.073 nM). The dilution series were prepared prior to the assay (2 mM to 7.3 nM in 100% DMSO) by serial dilutions. The IC50 values were calculated using a 4-parameter fit.
(In general: TR-FRET usually uses a lanthanide donor and a delayed reading to cut background.)

Test [2] has as its system secretion of TNF-α in THP-1 cells. The experiment in a line: TNF-α secretion in THP-1 cells (LPS-triggered). The class given is cell-based, human. The conditions noted are these: Homo sapiens, THP-1, 17 h, LPS 0.05 μg/ml, read-out: IC50 with respect to the secretion of TNF-α in THP-1 cells. How it is done:
TNF-α Secretion in THP-1 Cells
With the aid of this test, it is possible to test substances for their ability to inhibit secretion of TNF-α (tumour necrosis factor alpha) in THP-1 cells (human monocytic acute leukaemia cell line). TNF-α is a cytokine involved in inflammatory processes. In this test, TNF-α secretion is triggered by incubation with bacterial lipopolysaccharide (LPS).
THP-1 cells are kept in continuous suspension cell culture [RPMI 1460 medium with L-Glutamax (Gibco, Cat No. 61870-044) supplemented with foetal calf serum (FCS) 10% (Invitrogen, Cat No. 10082-147), 1% penicillin/streptomycin (Gibco BRL, Cat No. 15140-114)] and should not exceed a cell concentration of 1×10^6 cells/ml. The assay is carried out in cell culture medium (RPMI 1460 medium with L-Glutamax supplemented with FCS 10%).
In each case 2-2.5 μl of the cell suspension (corresponds to 4000 cells) per well were dispensed into a 384-well test plate (Greiner, Cat No. 784076), in each of which 40-50 nl substance had been dissolved in 100% DMSO. This was done using […] in the range from 20 μM to 0.073 nM for each substance. The cells were incubated at room temperature for 15 min. 2-2.5 μl of 0.1 μg/ml LPS (Sigma, Escherichia coli 055:B5, Cat. No. L5418) dissolved in cell culture medium (final concentration 0.05 μg/ml) were then dispensed into each well. As neutral control, cells were treated with 0.05 μg/ml LPS and 1% DMSO and, as inhibitor control, with 1% DMSO only.
The plates were centrifuged at 80 g for 30 s and incubated at 37° C., 5% CO2 and 95% atmospheric humidity for 17 h. The amount of TNF-α was determined using the TNF-alpha HTRF Detection Kit (Cisbio, Cat No. 62TNFPEB/C). To this end, 2 μl of the detection solution in each case, consisting of anti-TNF-α-XL665 conjugate and anti-TNF-α-cryptate conjugate dissolved in the reconstitution buffer in accordance with the manufacturer's instructions, were added for the HTRF (Homogeneous Time-Resolved Fluorescence) test. After the addition, the mixture was incubated either at room temperature for 3 h or at 4° C. overnight. The signals were then read at 620/665 nm using an HTRF-enabled measuring instrument such as the BMG PheraStar.
The activity of the substances is expressed as the ratio between neutral and inhibitor control in percent. The IC50 values were calculated using a 4-parameter fit.

Chain of human IRAK4 (Q9NWZ3 whole entry, the tested form may be a part): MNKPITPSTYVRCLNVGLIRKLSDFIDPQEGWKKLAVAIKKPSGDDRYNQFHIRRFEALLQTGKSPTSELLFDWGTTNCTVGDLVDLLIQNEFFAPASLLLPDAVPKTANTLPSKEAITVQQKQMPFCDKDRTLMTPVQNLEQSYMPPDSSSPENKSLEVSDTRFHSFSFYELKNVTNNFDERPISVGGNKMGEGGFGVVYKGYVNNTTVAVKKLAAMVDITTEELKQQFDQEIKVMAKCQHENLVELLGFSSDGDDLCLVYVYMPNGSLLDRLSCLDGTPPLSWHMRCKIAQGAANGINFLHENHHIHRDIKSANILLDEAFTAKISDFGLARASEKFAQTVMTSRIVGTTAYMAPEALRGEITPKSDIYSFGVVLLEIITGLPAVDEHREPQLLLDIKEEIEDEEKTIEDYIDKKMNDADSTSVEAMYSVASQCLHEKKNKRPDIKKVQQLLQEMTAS

`COc1cc2nn(C3CCOCC3)cc2cc1NC(=O)c1nc(C(F)(F)F)cs1` [Example 47, N-[6-Methoxy-2-(tetrahydro-2H-pyran-4-yl)-2H-indazol-5-yl]-4-(trifluoromethyl)-1,3-thiazole-2-carboxamide] gave an IC50 in test [1] of 65 nM.
Turning to `CC(C)(O)c1cc2nn([C@@H]3CCOC3)cc2cc1NC(=O)c1cccc(C(F)(F)F)n1` [Example 38, N-{6-(2-Hydroxypropan-2-yl)-2-[(3R)-tetrahydrofuran-3-yl]-2H-indazol-5-yl}-6-(trifluoromethyl)pyridine-2-carboxamide], the results for the IC50 in test [1] and in test [2] were 31 nM and 630 nM, respectively.
Regarding `CC(C)(O)c1cc2nn([C@H]3CCOC3)cc2cc1NC(=O)c1cccc(C(F)(F)F)n1` [Example 36, N-{6-(2-Hydroxypropan-2-yl)-2-[(3S)-tetrahydrofuran-3-yl]-2H-indazol-5-yl}-6-(trifluoromethyl)pyridine-2-carboxamide], the IC50 stood at 28 nM in test [1] and 540 nM in test [2].
Regarding `COc1cc2nn(C3CCOCC3)cc2cc1NC(=O)c1ccn(C(F)F)n1` [Example 51, 1-(Difluoromethyl)-N-[6-methoxy-2-(tetrahydro-2H-pyran-4-yl)-2H-indazol-5-yl]-1H-pyrazole-3-carboxamide], the IC50 in test [1] came out at 6 nM.
Regarding `COC(=O)c1cc2nn(C3CCOCC3)cc2cc1NC(=O)c1cccc(C(F)(F)F)n1` [Example 33, Methyl 2-(tetrahydro-2H-pyran-4-yl)-5-({[6-(trifluoromethyl)pyridin-2-yl]carbonyl}amino)-2H-indazole-6-carboxylate], the IC50 was found to be 11 nM in test [1] and 1800 nM in test [2].
Consider `COc1cc2nn(C3CCOCC3)cc2cc1NC(=O)c1nc(-c2ccncc2)no1` [Example 48, N-[6-Methoxy-2-(tetrahydro-2H-pyran-4-yl)-2H-indazol-5-yl]-3-(pyridin-4-yl)-1,2,4-oxadiazole-5-carboxamide], for which, in test [1], half-maximal inhibition (IC50) required 691 nM.
On the same count and under the same terms, the result for `COc1cc2nn(C3CCN(C4CCN(C)CC4)CC3)cc2cc1NC(=O)c1cccc(C(F)(F)F)n1` [Example 6, N-[6-Methoxy-2-(1′-methyl-1,4′-bipiperidin-4-yl)-2H-indazol-5-yl]-6-(trifluoromethyl)pyridine-2-carboxamide] reads 2 nM; that for `NC(=O)c1cc2nn(C3CCNCC3)cc2cc1NC(=O)c1cccc(C(F)(F)F)n1` [Example 53, 2-(Piperidin-4-yl)-5-({[6-(trifluoromethyl)pyridin-2-yl]carbonyl}amino)-2H-indazole-6-carboxamide], 1 nM; that for `CC(C)(O)CCN1CCC(n2cc3cc(NC(=O)c4cccc(C(F)(F)F)n4)c(C(N)=O)cc3n2)CC1` [Example 56, 2-[1-(3-Hydroxy-3-methylbutyl)piperidin-4-yl]-5-({[6-(trifluoromethyl)pyridin-2-yl]carbonyl}amino)-2H-indazole-6-carboxamide], 4 nM.
The same measure, in the same setting: to `O=C(Nc1cc2cn(C3CCOCC3)nc2cc1Cl)c1nc(C(F)(F)F)cs1` [Example 50, N-[6-Chloro-2-(tetrahydro-2H-pyran-4-yl)-2H-indazol-5-yl]-4-(trifluoromethyl)-1,3-thiazole-2-carboxamide] belongs 496 nM; to `CC(C)(O)c1cc2nn([C@H]3CCS(=O)(=O)C3)cc2cc1NC(=O)c1cccc(C(F)(F)F)n1` [Example 41, N-{2-[(3S)-1,1-Dioxidotetrahydrothiophen-3-yl]-6-(2-hydroxypropan-2-yl)-2H-indazol-5-yl}-6-(trifluoromethyl)pyridine-2-carboxamide], 16 nM; to `COc1cc2nn(C3CCN(CCN(C)C)CC3)cc2cc1NC(=O)c1cccc(C(F)(F)F)n1` [Example 9, N-(2-{1-[2-(Dimethylamino)ethyl]piperidin-4-yl}-6-methoxy-2H-indazol-5-yl)-6-(trifluoromethyl)pyridine-2-carboxamide], 1 nM.
The same measure, in the same setting: the result for `O=C(Nc1cc2cn(C3CCNCC3)nc2cc1C(=O)O)c1cccc(C(F)(F)F)n1` [Example 54, 2-(Piperidin-4-yl)-5-({[6-(trifluoromethyl)pyridin-2-yl]carbonyl}amino)-2H-indazole-6-carboxylic Acid] reads 75 nM; that for `COc1cc2nn(C3CCS(=O)(=O)CC3)cc2cc1NC(=O)c1cccc(C(F)(F)F)n1` [Example 11, N-[2-(1,1-Dioxidotetrahydro-2H-thiopyran-4-yl)-6-methoxy-2H-indazol-5-yl]-6-(trifluoromethyl)pyridine-2-carboxamide], 3 nM.
The molecule `COC(=O)c1cc2nn(C3CCN(C)CC3)cc2cc1NC(=O)c1cccc(C(F)(F)F)n1` [Example 55, Methyl 2-(1-methylpiperidin-4-yl)-5-({[6-(trifluoromethyl)pyridin-2-yl]carbonyl}amino)-2H-indazole-6-carboxylate] showed an IC50 in test [1] of 1 nM.
Same read-out and setting: the result for `COc1cc2nn(C3CCOCC3)cc2cc1NC(=O)c1nc(C)no1` [Example 49, N-[6-Methoxy-2-(tetrahydro-2H-pyran-4-yl)-2H-indazol-5-yl]-3-methyl-1,2,4-oxadiazole-5-carboxamide] reads 3780 nM.
In turn, `COCCN1CCC(n2cc3cc(NC(=O)c4cccc(C(F)(F)F)n4)c(OC)cc3n2)CC1` [Example 58, N-{6-Methoxy-2-[1-(2-methoxyethyl)piperidin-4-yl]-2H-indazol-5-yl}-6-(trifluoromethyl)pyridine-2-carboxamide] yielded an IC50 in test [1] of 2 nM.
The same measure, in the same setting: to `CN1CCC(n2cc3cc(NC(=O)c4cccc(C(F)(F)F)n4)c(C(N)=O)cc3n2)CC1` [Example 57, 2-(1-Methylpiperidin-4-yl)-5-({[6-(trifluoromethyl)pyridin-2-yl]carbonyl}amino)-2H-indazole-6-carboxamide] belongs 2 nM.
